Results reported in US20230183243A1, “HETEROARYL DERIVATIVES AND PHARMACEUTICAL COMPOSITION COMPRISING SAME AS ACTIVE INGREDIENT” (VORONOI INC., priority 2019, published 2023).

Experiments:
[1] = biological target: T1, TTK (Homo sapiens, UniProt P33981); test: TTK enzyme activity, ADP-Glo kinase assay; assay type: biochemical; parameters: purchased SignalChem T20-10G; conditions: purified human TTK, ATP 10 μM, 25° C., 2 hours
T1 sequence (P33981 1-857): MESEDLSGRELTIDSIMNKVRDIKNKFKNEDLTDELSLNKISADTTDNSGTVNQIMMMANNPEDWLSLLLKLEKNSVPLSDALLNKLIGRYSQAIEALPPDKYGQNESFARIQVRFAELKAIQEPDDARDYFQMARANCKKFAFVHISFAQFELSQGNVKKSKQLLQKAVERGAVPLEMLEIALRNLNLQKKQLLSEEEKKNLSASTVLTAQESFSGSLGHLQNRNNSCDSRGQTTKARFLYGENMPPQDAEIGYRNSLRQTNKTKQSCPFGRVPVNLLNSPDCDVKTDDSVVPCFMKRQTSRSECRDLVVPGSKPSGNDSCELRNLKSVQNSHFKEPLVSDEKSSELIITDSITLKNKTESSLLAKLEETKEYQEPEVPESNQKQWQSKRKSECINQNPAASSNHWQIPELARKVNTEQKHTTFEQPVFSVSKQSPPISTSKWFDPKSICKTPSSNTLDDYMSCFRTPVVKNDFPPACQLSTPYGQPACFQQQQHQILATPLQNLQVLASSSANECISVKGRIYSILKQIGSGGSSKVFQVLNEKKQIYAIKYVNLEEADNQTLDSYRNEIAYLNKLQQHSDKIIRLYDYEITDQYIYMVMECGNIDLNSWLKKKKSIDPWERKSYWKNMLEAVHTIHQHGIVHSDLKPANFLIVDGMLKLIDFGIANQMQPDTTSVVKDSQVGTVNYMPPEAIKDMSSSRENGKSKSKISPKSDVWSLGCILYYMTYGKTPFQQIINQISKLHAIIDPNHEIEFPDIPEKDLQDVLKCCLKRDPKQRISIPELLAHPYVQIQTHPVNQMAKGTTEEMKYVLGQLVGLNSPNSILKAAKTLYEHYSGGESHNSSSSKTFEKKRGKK
Method: To evaluate an inhibitory activity of the compound according to the present invention against TTK (MPS1), an experiment was performed as follows.
Each of the Example compounds was reacted with a purified human TTK (SignalChem #T20-10G) enzyme to evaluate an ability to inhibit an enzyme using a method as described below. A composition of 40 mM Tris-HCl (pH 7.4), 20 mM MgCl2, 0.5 mg/mL BSA, and 50 μM DTT was used as a reaction buffer, and all reactions of test substances were performed in the reaction buffer. […] In the test, purified ATP (10 μM) and an enzyme substrate (0.2 μg) were reacted with a human TTK (25 ng) enzyme at 25° C. for 2 hours, and the enzyme activity was determined using an in vitro ADP-Glo™ kinase assay (Promega). […] The degree of inhibition of the enzyme activity according to the treatment concentration of each of the compounds was calculated based on the fluorescence of the enzyme activity of the solvent control which was not treated with the compound.

[2] = test system: MDA-MB-231 cells; test: Inhibition of proliferation of triple-negative breast cancer cells, CellTiter-Glo; assay type: cell-based; conditions: Homo sapiens, 120 h; MDA-MB-231, cultured for 5 days
Method: Specifically, the following test was performed in order to evaluate the inhibitory activity of the compound according to the present invention against the cell proliferation in triple-negative breast cancer cells (TNBCs).
Cells were seeded in 180 μL of a culture broth at a density of 2,000 to 3,000 cells/well in a white clear bottom 96-well plate (Corning) according to the growth ability of each cell, and then cultured for 24 hours under conditions of 5% CO2 and 37° C. Thereafter, the compound was prepared by diluting a 10 mM stock solution three-fold with 100% DMSO at a total of 12 concentrations so that a peak concentration of the compound was in a range of 10 mM to 0.05 μM, and the diluted compound was then diluted in each cell culture medium so that a final concentration of the compound was in a range of 100 μM to 0.5 nM. 20 μL of a diluted solution diluted with a medium was added to the cell solution in which cells were seeded in the 96-well plate on the previous day so that a final concentration of the diluted solution was in a range of 10 μM to 0.05 nM. Each of the cells was cultured for 5 days. To check cell viability, a mixture provided in a CellTiter-Glo® Luminescent Cell Viability Assay Kit (Promega) was added to each of the cultured cell media, and cultured for another 10 minutes under a condition of 37° C. Then, a degree of luminescence (fluorescence) was measured. A degree of inhibition of the cell growth according to the treatment concentration of each of the compounds was calculated based on the fluorescence of the solvent control cells which were not treated with the compound.

| IC50 [1] [nM] | GI50 [2] [nM] | SMILES |
| --- | --- | --- |
| < 50 | 100 to 1000 | CCOc1cc(-c2nncn2C)ccc1Nc1nc(NCCS(C)(=O)=O)c2c(C#N)c[nH]c2n1 [Example 14, 2-((2-ethoxy-4-(4-methyl-4H-1,2,4-triazol-3-yl)phenyl)amino)-4-((2-(methylsulfonyl)ethyl)amino)-7H-pyrrolo[2,3-d] pyrimidine-5-carbonitrile] |
| 200 to 1000 | < 100 | COc1cc(-c2nccs2)ccc1Nc1nc(NC2CCCC2)c2c(C#N)c[nH]c2n1 [Example 17, 4-(cyclopentylamino)-2-((2-methoxy-4-(thiazol-2-yl)phenyl)amino)-7H-pyrrolo[2,3-d] pyrimidine-5-carbonitrile] |
| < 50 | < 100 | COc1cc(-c2c(C)noc2C)ccc1Nc1nc(NC2CCCCC2)c2c(C#N)c[nH]c2n1 [Example 18, 4-(cyclohexylamino)-2-((4-(3,5-dimethylisoxazol-4-yl)-2-methoxyphenyl)amino)-7H-pyrrolo[2,3-d] pyrimidine-5-carbonitrile] |
| 50 to 200 | < 100 | COc1cc(-c2cnn(C3CCOCC3)c2)ccc1Nc1nc(NC2CCCCC2)c2c(C#N)c[nH]c2n1 [Example 19, 4-(cyclohexylamino)-2-((2-methoxy-4-(1-(tetrahydro-2H-pyran-4-yl)-1H-pyrazol-4-yl)phenyl)amino)-7H-pyrrolo[2,3-d] pyrimidine-5-carbonitrile] |
| < 50 | < 100 | COc1cc(-c2cnn(C3COC3)c2)ccc1Nc1nc(NC2CCCCC2)c2c(C#N)c[nH]c2n1 [Example 20, 4-(cyclohexylamino)-2-((2-methoxy-4-(1-(oxetan-3-yl)-1H-pyrazol-4-yl)phenyl)amino)-7H-pyrrolo[2,3-d] pyrimidine-5-carbonitrile] |
| 50 to 200 | 100 to 1000 | CC(=O)N1CCN(Cc2ccc(-c3ccc(Nc4nc(NC5CCCCC5)c5c(C#N)c[nH]c5n4)cc3)cc2)CC1 [Example 21] |
| < 50 | 100 to 1000 | N#Cc1c[nH]c2nc(Nc3ccc(-c4ccc(CN5CCN(C6CC6)CC5)cc4)cc3)nc(NC3CCCCC3)c12 [Example 22, 4-(cyclohexylamino)-2-((4′-((4-cyclopropylpiperazin-l-yl)methyl)-[1,1′-biphenyl]-4-yl)amino)-7H-pyrrolo[2,3-d] pyrimidine-5-carbonitrile] |
| 50 to 200 | < 100 | COc1cc(-c2ccc(CN3CCN(C(C)=O)CC3)cc2)ccc1Nc1nc(NC2CCCCC2)c2c(C#N)c[nH]c2n1 [Example 23, 2-((4′-((4-acetylpiperazin-1-yl)methyl)-3-methoxy-[1,1′-biphenyl]-4-yl)amino)-4-(cyclohexylamino)-7H-pyrrolo[2,3-d] pyrimidine-5-carbonitrile] |
| < 50 | < 100 | COc1cc(-c2ccc(F)nc2)ccc1Nc1nc(NC2CCCCC2)c2c(C#N)c[nH]c2n1 [Example 24, 4-(cyclohexylamino)-2-((4-(6-fluoropyridin-3-yl)-2-methoxyphenyl)amino)-7H-pyrrolo[2,3-d] pyrimidine-5-carbonitrile] |
| 200 to 1000 | < 100 | COc1cc(-c2cn(C)nn2)ccc1Nc1nc(NC2CCCCC2)c2c(C#N)c[nH]c2n1 [Example 25, 4-(cyclohexylamino)-2-((2-methoxy-4-(1-methyl-1H-1,2,3-triazol-4-yl)phenyl)amino)-7H-pyrrolo[2,3-d] pyrimidine-5-carbonitrile] |
| 50 to 200 | < 100 | COc1cc(-c2ncnn2C)ccc1Nc1nc(NC2CCCCC2)c2c(C#N)c[nH]c2n1 [Example 26, 4-(cyclohexylamino)-2-((2-methoxy-4-(l-methyl-1H-1,2,4-triazol-5-yl)phenyl)amino)-7H-pyrrolo[2,3-d] pyrimidine-5-carbonitrile] |
| < 50 | < 100 | COc1cc(-c2ncn(C)n2)ccc1Nc1nc(NC2CCCCC2)c2c(C#N)c[nH]c2n1 [Example 27, 4-(cyclohexylamino)-2-((2-methoxy-4-(1-methyl-1H-1,2,4-triazol-3-yl)phenyl)amino)-7H-pyrrolo[2,3-d] pyrimidine-5-carbonitrile] |
| < 50 | < 100 | COc1cc(-c2cncn2C)ccc1Nc1nc(NC2CCCC2)c2c(C#N)c[nH]c2n1 [Example 30, 4-(cyclopentylamino)-2-((2-methoxy-4-(1-methyl-1H-imidazol-5-yl)phenyl)amino)-7H-pyrrolo[2,3-d] pyrimidine-5-carbonitrile] |
| < 50 | < 100 | COc1cc(-c2nnc3n2CCC3)ccc1Nc1nc(NC2CCCCC2)c2c(C#N)c[nH]c2n1 [Example 31, 4-(cyclohexylamino)-2-((4-(6,7-dihydro-5H-pyrrolo[2,1-c] [1,2,4]triazol-3-yl)-2-methoxyphenyl)amino)-7H-pyrrolo[2,3-d] pyrimidine-5-carbonitrile] |
| < 50 | < 100 | COc1cc(N2CCCC2=O)ccc1Nc1nc(O[C@H]2CC[C@@](C)(O)CC2)c2c(C#N)c[nH]c2n1 [Example 32, 4-(((1s,4s)-4-hydroxy-4-methylcyclohexyl)oxy)-2-((2-methoxy-4-(2-oxopyrrolidin-1-yl)phenyl)amino)-7H-pyrrolo[2,3-d] pyrimidine-5-carbonitrile 2,2,2-trifluoroacetate] |
| 50 to 200 | < 100 | Cn1nccc1-c1ccc(Nc2nc(NC3CCCC3)c3c(C#N)c[nH]c3n2)c2c1CCO2 [Example 33, 4-(cyclopentylamino)-2-((4-(1-methyl-1H-pyrazol-5-yl)-2,3-dihydrobenzofuran-7-yl)amino)-7H-pyrrolo[2,3-d] pyrimidine-5-carbonitrile] |
| 200 to 1000 | 100 to 1000 | COc1cc(-c2ccnn2C)c(C)cc1Nc1nc(NC2CCCC2)c2c(C#N)c[nH]c2n1 [Example 35, 4-(cyclopentylamino)-2-((2-methoxy-5-methyl-4-(1-methyl-1H-pyrazol-5-yl)phenyl)amino)-7H-pyrrolo[2,3-d] pyrimidine-5-carbonitrile] |
| < 50 | < 100 | Cn1nccc1-c1ccc(Nc2nc(NC3CCCCC3)c3c(C#N)c[nH]c3n2)c2c1OCCO2 [Example 39, 4-(cyclohexylamino)-2-((8-(1-methyl-1H-pyrazol-5-yl)-2,3-dihydrobenzo[b][1,4]dioxin-5-yl)amino)-7H-pyrrolo[2,3-d] pyrimidine-5-carbonitrile] |
| 50 to 200 | 100 to 1000 | COc1cc(-c2ccc(CN3CCN(C(C)=O)CC3)cc2)ccc1Nc1nc(NC2CCCC2)c2c(C#N)c[nH]c2n1 [Example 41, 2-((4′-((4-acetylpiperazin-1-yl)methyl)-3-methoxy-[1,1′-biphenyl]-4-yl)amino)-4-(cyclopentylamino)-7H-pyrrolo[2,3-d] pyrimidine-5-carbonitrile] |

| SMILES | IC50 [1] [nM] | GI50 [2] [nM] |
| --- | --- | --- |
| CC(C)COc1cc(N2CCCC2=O)ccc1Nc1nc(NC2CCCC2)c2c(C#N)c[nH]c2n1 [Example 28, 4-(cyclopentylamino)-2-((2-isobutoxy-4-(2-oxopyrrolidin-1-yl)phenyl)amino)-7H-pyrrolo[2,3-d] pyrimidine-5-carbonitrile] | 200 to 1000 | > 1000 |
